Legend:
A549-ACE2 [1] = assay: phospholipidosis EC50; higher = less potent phospholipidosis inducer
[2] = test system: A549-ACE2 infected with SARS-CoV-2; assay: cell count relative to DMSO; higher = less toxic; details: 24 h
A549-ACE2 [3] = assay: drug-induced phospholipidosis relative to tamoxifen; higher = more phospholipidosis
[4] = test system: A549-ACE2 infected with SARS-CoV-2; assay: SARS-CoV-2 infection rate relative to DMSO; higher = more infection; details: 24 h
HepG2 [5] = assay: relative viability EC50 (midpoint between 100% and the lowest measured viability); higher = less toxic; details: 72 h
Calu-3 [6] = assay: as above; details: 72 h
Vero E6 [7] = assay: as above; details: 72 h
U2OS [8] = assay: as above; details: 72 h
Caco-2 [9] = assay: as above; details: 72 h
HepG2 [10] = assay: drug sensitivity score (DSS) for viability; higher = more toxic; extreme values may be limits of the assay; details: 72 h
Calu-3 [11] = assay: as above; details: 72 h
Vero E6 [12] = assay: as above; details: 72 h
U2OS [13] = assay: as above; details: 72 h
Caco-2 [14] = assay: as above; details: 72 h
[15] = test system: A549-ACE2 infected with SARS-CoV-2; assay: morphology score (similarity to uninfected cells); higher = more like uninfected cells; details: 24 h
HepG2 [16] = assay: cell viability relative to DMSO; higher = less toxic; details: 72 h
Calu-3 [17] = assay: as above; details: 72 h
Vero E6 [18] = assay: as above; details: 72 h
U2OS [19] = assay: as above; details: 72 h
Caco-2 [20] = assay: as above; details: 72 h

OC1(c2ccc(Cl)c(C(F)(F)F)c2)CCN(CCCC(c2ccc(F)cc2)c2ccc(F)cc2)CC1 [penfluridol]
Details	SARS-CoV-2 infection rate [%]	cell count [%]	cell viability [%]	morphology score	phospholipidosis EC50 [µM]
A549-ACE2 [1], 24 h	–	–	–	–	0.874
Caco-2 [20], 1 nM	–	–	87.3	–	–
Caco-2 [20], 10 nM	–	–	74.2	–	–
Caco-2 [20], 100 nM	–	–	96.5	–	–
Caco-2 [20], 1000 nM	–	–	82.2	–	–
Caco-2 [20], 10000 nM	–	–	0.3	–	–
Calu-3 [17], 1 nM	–	–	102	–	–
Calu-3 [17], 10 nM	–	–	95.2	–	–
Calu-3 [17], 100 nM	–	–	100	–	–
Calu-3 [17], 1000 nM	–	–	93.1	–	–
Calu-3 [17], 10000 nM	–	–	1	–	–
HepG2 [16], 1 nM	–	–	106	–	–
HepG2 [16], 10 nM	–	–	108	–	–
HepG2 [16], 100 nM	–	–	104	–	–
HepG2 [16], 1000 nM	–	–	103	–	–
HepG2 [16], 10000 nM	–	–	0.2	–	–
U2OS [19], 1 nM	–	–	99.4	–	–
U2OS [19], 10 nM	–	–	100	–	–
U2OS [19], 100 nM	–	–	104	–	–
U2OS [19], 1000 nM	–	–	93.2	–	–
U2OS [19], 10000 nM	–	–	3	–	–
Vero E6 [18], 1 nM	–	–	105	–	–
Vero E6 [18], 10 nM	–	–	96.3	–	–
Vero E6 [18], 100 nM	–	–	94.1	–	–
Vero E6 [18], 1000 nM	–	–	97.8	–	–
Vero E6 [18], 10000 nM	–	–	0.1	–	–
[2], 0.1 µM	–	101	–	–	–
[2], 0.3 µM	–	94	–	–	–
[2], 1 µM	–	113	–	–	–
[2], 3 µM	–	95	–	–	–
[4], 0.1 µM	100	–	–	–	–
[4], 0.3 µM	102	–	–	–	–
[4], 1 µM	74	–	–	–	–
[4], 3 µM	8	–	–	–	–
[15], 0.1 µM	–	–	–	0.06	–
[15], 0.3 µM	–	–	–	0.27	–
[15], 1 µM	–	–	–	0.55	–
[15], 3 µM	–	–	–	0.86	–

drug-induced phospholipidosis [%], A549-ACE2 [3]
Details	0.3 µM	0.833333 µM	3.33333 µM	6.66667 µM
24 h	12.8	30.2	64.4	48.3
48 h	13.8	28.2	67.6	–
72 h	16.8	26.4	77.7	–

Details	drug sensitivity score	relative viability EC50 [µM]
Caco-2 [9]	–	1.83
Caco-2 [14]	8.4	–
Calu-3 [6]	–	2.6
Calu-3 [11]	6.5	–
HepG2 [5]	–	3.34
HepG2 [10]	5.3	–
U2OS [8]	–	2.6
U2OS [13]	6.4	–
Vero E6 [7]	–	3
Vero E6 [12]	5.9	–

CCCOC(C(=O)OC1CCN(C)CC1)(c1ccccc1)c1ccccc1 [propiverine]
Details	SARS-CoV-2 infection rate [%]	cell count [%]	cell viability [%]	morphology score	phospholipidosis EC50 [µM]
A549-ACE2 [1], 24 h	–	–	–	–	2.8
A549-ACE2 [1], 48 h	–	–	–	–	4.22
A549-ACE2 [1], 72 h	–	–	–	–	5.23
Caco-2 [20], 1 nM	–	–	102	–	–
Caco-2 [20], 10 nM	–	–	102	–	–
Caco-2 [20], 100 nM	–	–	102	–	–
Caco-2 [20], 1000 nM	–	–	95.5	–	–
Caco-2 [20], 10000 nM	–	–	89.7	–	–
Calu-3 [17], 1 nM	–	–	93.5	–	–
Calu-3 [17], 10 nM	–	–	95.1	–	–
Calu-3 [17], 100 nM	–	–	100	–	–
Calu-3 [17], 1000 nM	–	–	105	–	–
Calu-3 [17], 10000 nM	–	–	80.4	–	–
HepG2 [16], 1 nM	–	–	106	–	–
HepG2 [16], 10 nM	–	–	109	–	–
HepG2 [16], 100 nM	–	–	104	–	–
HepG2 [16], 1000 nM	–	–	117	–	–
HepG2 [16], 10000 nM	–	–	78	–	–
U2OS [19], 1 nM	–	–	107	–	–
U2OS [19], 10 nM	–	–	99	–	–
U2OS [19], 100 nM	–	–	99.5	–	–
U2OS [19], 1000 nM	–	–	97.8	–	–
U2OS [19], 10000 nM	–	–	96.8	–	–
Vero E6 [18], 1 nM	–	–	103	–	–
Vero E6 [18], 10 nM	–	–	95	–	–
Vero E6 [18], 100 nM	–	–	105	–	–
Vero E6 [18], 1000 nM	–	–	96.4	–	–
Vero E6 [18], 10000 nM	–	–	98.4	–	–
[2], 0.3 µM	–	101	–	–	–
[2], 3 µM	–	119	–	–	–
[2], 10 µM	–	120	–	–	–
[2], 30 µM	–	110	–	–	–
[4], 0.3 µM	95	–	–	–	–
[4], 3 µM	51	–	–	–	–
[4], 10 µM	17	–	–	–	–
[4], 30 µM	11	–	–	–	–
[15], 0.3 µM	–	–	–	0.19	–
[15], 3 µM	–	–	–	0.77	–
[15], 10 µM	–	–	–	0.9	–
[15], 30 µM	–	–	–	0.74	–

drug-induced phospholipidosis [%], A549-ACE2 [3]
Details	0.3 µM	0.833333 µM	3.33333 µM	6.66667 µM	10 µM	30 µM
24 h	2.28	8.59	66.7	91.7	105	109
48 h	4.59	4.15	46.3	84.9	98.8	115
72 h	4.64	4.08	43.7	80.2	95.8	123

Details	drug sensitivity score	relative viability EC50 [µM]
Caco-2 [9]	–	> 10
Caco-2 [14]	0	–
Calu-3 [6]	–	> 10
Calu-3 [11]	0.4	–
HepG2 [5]	–	> 10
HepG2 [10]	0.4	–
U2OS [8]	–	> 10
U2OS [13]	0	–
Vero E6 [7]	–	> 10
Vero E6 [12]	0	–
